Measurements taken from ChEMBL document CHEMBL5727118, “Benzoic acid derivatives of bile acid as FXR/TGR5 agonists and methods of use thereof” (2019).

Target: T1, Bile acid receptor (Homo sapiens, UniProt Q96RI1)
T1 sequence (Q96RI1 whole entry): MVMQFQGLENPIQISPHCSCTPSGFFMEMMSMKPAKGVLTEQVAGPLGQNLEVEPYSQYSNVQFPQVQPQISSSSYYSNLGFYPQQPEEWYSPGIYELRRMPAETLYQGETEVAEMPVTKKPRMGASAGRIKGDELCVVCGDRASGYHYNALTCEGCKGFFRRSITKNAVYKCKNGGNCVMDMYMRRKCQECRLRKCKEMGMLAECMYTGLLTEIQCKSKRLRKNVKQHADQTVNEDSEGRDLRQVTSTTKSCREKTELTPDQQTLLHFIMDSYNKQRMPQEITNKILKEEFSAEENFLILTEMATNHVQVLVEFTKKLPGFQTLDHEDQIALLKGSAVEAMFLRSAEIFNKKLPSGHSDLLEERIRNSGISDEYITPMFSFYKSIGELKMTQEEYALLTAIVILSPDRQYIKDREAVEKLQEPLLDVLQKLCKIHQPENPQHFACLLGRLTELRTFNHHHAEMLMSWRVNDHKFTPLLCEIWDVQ
Experiment: FXR Reporter Assay kit purchased from Indigo Bioscience (Catalogue number: IB00601) to determine the potency and efficacy of compound developed by Enanta that can induce FXR activation. The principle application of this reporter assay system is to quantify functional activity of human FXR. The assay utilizes non-human mammalian cells, CHO (Chinese hamster ovary) cells engineered to express human NR1H4 protein (referred to as FXR). Reporter cells also incorporate the cDNA encoding beetle luciferase which catalyzes the substrates and yields photon emission. Luminescence intensity of the reaction is quantified using a plate-reading luminometer, Envision. Reporter Cells include the luciferase reporter gene functionally linked to an FXR responsive promoter. Thus, quantifying changes in luciferase expression in the treated reporter cells provides a sensitive surrogate measure of the changes in FXR activity. […] The assay is according to the manufacturer's instructions. In brief, the assay was performed in white, 96 well plates using final volume of 100 ul containing cells with different doses of compounds. Retrieve Reporter Cells from −80° C. storage. Perform a rapid thaw of the frozen cells by transferring a 10 ml volume of 37° C. cell recovery medium into the tube of frozen cells. Recap the tube of Reporter Cells and immediately place it in a 37° C. water bath for 5-10 minutes. […]
Assay type: cell-based

In the case of `CC[C@H]1[C@@H](O)[C@@H]2[C@H](CC[C@]3(C)[C@@H]([C@H](C)C/C=C/c4ccc(F)cc4C(=O)O)CC[C@@H]23)[C@@]2(C)CC[C@@H](O)C[C@@H]12`, the EC50 is reported as < 0.1 µM.
